Measurements taken from patent US10047051B2, “Substituted pyridines and method of use” (AbbVie S.á{acute over (.)}r.l., priority 2015, dated 2018).

Columns and labels:
CFTR ΔF508 mutant = target: T1, CFTR ΔF508 mutant (Homo sapiens, UniProt P13569, DEL508-508); experiment: YFP-halide influx assay for the CFTR-ΔF508 mutation (CFBE41o- cells); format: cell-based; details: forskolin 10.67 μM; for EC50: from (1−F/F0) vs concentration plot
T1 construct: expressed in transfected cells; host or cells: CFBE41o- cells, adenoviral transduction
In short: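 CFBE41o- cells transduced with adenovirus expressing CFTR ΔF508 and halide-sensitive YFP H148Q/I152L/F47L, then held 24 h at 27° C or with a CFTR modulator 24 h at 37° C. Iodide-induced quench recorded 2 min; EC50 from (1−F/F0) at 36 s versus concentration.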

CFTR G551D mutant = target: T2, CFTR G551D mutant (Homo sapiens, UniProt P13569, G551D); experiment: YFP-halide influx assay for the CFTR-G551D mutation (HEK293 cells); format: cell-based; details: forskolin 10.67 μM
T2 construct: expressed in transfected cells; host or cells: HEK293 cells, reverse transfection with plasmids
In short: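 HEK293 cells reverse-transfected with CFTR G551D and halide-sensitive YFP (H148Q/I152L/F47L), expressed 24 h at 37 °C. YFP fluorescence quenching recorded for 7 s after I⁻ injection. Response = 1−F/F0; EC50 derived from 1−F/F0 vs compound concentration.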

T1 sequence (P13569 with tags, fused parts or gaps DEL508-508): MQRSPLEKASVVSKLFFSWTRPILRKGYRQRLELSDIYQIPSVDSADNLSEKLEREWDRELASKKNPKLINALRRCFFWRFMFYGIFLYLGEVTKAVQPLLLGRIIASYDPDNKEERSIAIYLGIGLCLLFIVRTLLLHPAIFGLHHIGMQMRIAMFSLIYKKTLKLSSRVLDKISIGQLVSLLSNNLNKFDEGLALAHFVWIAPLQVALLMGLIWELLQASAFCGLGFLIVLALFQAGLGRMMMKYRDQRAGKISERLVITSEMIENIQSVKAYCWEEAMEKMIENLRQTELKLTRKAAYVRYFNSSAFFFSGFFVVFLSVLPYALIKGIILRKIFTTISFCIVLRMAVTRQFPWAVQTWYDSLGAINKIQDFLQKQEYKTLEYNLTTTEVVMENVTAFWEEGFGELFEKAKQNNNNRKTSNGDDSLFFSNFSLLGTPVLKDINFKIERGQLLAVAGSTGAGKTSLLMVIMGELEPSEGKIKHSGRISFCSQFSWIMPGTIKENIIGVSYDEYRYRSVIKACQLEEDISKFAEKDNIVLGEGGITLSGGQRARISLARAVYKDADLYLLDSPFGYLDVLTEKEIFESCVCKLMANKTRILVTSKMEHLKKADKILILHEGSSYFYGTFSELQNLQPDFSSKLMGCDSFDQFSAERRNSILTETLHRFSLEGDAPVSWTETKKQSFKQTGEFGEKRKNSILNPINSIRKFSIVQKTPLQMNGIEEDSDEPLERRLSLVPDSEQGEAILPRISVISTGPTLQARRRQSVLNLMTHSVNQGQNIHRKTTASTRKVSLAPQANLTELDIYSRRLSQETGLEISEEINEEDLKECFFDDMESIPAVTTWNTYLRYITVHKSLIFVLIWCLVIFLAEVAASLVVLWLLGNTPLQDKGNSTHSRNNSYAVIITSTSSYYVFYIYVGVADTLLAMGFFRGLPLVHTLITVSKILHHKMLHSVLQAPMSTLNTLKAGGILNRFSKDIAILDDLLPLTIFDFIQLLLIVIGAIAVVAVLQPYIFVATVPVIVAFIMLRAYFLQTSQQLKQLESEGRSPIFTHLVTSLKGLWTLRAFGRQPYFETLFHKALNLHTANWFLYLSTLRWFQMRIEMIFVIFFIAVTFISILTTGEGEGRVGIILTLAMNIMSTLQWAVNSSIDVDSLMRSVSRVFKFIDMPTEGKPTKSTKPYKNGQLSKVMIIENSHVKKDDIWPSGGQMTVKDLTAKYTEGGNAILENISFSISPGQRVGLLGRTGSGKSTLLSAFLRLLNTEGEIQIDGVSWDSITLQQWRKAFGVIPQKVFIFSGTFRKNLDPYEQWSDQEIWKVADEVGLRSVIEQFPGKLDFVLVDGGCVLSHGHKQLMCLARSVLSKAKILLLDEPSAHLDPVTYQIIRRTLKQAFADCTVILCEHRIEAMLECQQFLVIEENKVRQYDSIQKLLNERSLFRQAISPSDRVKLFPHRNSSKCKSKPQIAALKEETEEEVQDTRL
T2 sequence (P13569 whole entry G551D): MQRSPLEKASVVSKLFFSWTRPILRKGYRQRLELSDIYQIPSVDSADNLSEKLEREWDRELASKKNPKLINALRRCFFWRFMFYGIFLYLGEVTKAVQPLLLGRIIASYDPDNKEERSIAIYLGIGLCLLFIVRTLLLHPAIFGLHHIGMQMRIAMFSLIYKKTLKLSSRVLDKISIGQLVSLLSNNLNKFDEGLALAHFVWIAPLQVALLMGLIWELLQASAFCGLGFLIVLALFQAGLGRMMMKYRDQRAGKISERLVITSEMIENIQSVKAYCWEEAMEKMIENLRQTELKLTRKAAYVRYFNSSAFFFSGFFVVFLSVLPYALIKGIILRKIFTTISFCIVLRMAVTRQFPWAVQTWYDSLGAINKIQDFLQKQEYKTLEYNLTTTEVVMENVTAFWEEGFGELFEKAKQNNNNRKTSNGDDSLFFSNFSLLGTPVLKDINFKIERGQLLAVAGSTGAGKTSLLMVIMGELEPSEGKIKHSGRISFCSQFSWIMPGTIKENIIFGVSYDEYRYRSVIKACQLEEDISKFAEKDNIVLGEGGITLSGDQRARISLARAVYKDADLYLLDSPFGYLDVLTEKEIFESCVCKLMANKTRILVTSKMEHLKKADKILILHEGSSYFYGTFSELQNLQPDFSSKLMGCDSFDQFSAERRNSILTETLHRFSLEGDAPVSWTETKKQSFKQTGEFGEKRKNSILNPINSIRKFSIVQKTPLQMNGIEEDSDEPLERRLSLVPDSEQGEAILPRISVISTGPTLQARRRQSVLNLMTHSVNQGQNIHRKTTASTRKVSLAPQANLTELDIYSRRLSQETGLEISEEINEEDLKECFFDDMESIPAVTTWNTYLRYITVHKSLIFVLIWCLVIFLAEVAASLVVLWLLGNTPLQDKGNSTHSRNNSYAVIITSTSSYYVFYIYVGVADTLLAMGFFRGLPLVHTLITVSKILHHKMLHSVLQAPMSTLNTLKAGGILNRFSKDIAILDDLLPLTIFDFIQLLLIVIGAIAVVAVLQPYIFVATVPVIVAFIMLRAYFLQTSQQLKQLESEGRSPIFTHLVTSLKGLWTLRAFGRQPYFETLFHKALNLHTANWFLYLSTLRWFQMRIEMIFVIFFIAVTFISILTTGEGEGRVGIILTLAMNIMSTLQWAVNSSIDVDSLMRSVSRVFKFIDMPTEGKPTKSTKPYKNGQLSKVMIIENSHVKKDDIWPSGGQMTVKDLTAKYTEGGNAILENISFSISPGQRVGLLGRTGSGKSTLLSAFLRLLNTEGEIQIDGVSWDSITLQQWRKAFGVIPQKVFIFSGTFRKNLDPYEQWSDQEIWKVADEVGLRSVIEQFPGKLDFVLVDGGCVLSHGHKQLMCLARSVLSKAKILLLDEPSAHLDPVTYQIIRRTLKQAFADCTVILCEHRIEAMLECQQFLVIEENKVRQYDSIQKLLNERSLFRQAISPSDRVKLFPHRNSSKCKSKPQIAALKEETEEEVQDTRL

Row | SMILES | % Activation (CFTR ΔF508 mutant) | EC50 (CFTR ΔF508 mutant) | % Activation (CFTR G551D mutant) | EC50 (CFTR G551D mutant)
1 | Nc1cc(S(=O)(=O)N2CCCC(F)C2)cnc1C(=O)NCC(O)C(F)(F)F (stereo not shown) [Compound 194, 3-amino-5-[(3-fluoropiperidin-1-yl)sulfonyl]-N-(3,3,3-trifluoro-2-hydroxypropyl)pyridine-2-carboxamide] | 95.7% | 32.7 nM | 62.3% | 1780 nM
2 | Nc1cc(S(=O)(=O)N2CCC(F)CC2)cnc1C(=O)NCC(O)C(F)(F)F (stereo not shown) [Compound 195, 3-amino-5-[(4-fluoropiperidin-1-yl)sulfonyl]-N-(3,3,3-trifluoro-2-hydroxypropyl)pyridine-2-carboxamide] | 98.7% | 26.2 nM | 61.8% | 1250 nM
3 | COC1CCN(S(=O)(=O)c2cnc(C(=O)NCC(O)C(F)(F)F)c(N)c2)CC1 (stereo not shown) [Compound 196, 3-amino-5-[(4-methoxypiperidin-1-yl)sulfonyl]-N-(3,3,3-trifluoro-2-hydroxypropyl)pyridine-2-carboxamide] | 105.4% | 25.7 nM | 65.4% | 1820 nM
4 | Nc1cc(S(=O)(=O)NC[C@H]2CCOC2)cnc1C(=O)NCC(O)C(F)(F)F (stereo partly drawn) [Compound 200, 3-amino-5-{[(3R)-tetrahydrofuran-3-ylmethyl]sulfamoyl}-N-(3,3,3-trifluoro-2-hydroxypropyl)pyridine-2-carboxamide] | 116.7% | 42.9 nM | 59.5% | 2340 nM
5 | COCCNC(=O)c1ncc(S(=O)(=O)c2ccc(C(F)(F)F)cc2)cc1N [Compound 202, 3-amino-N-(2-methoxyethyl)-5-{[4-(trifluoromethyl)phenyl]sulfonyl}pyridine-2-carboxamide] | 97.6% | 45.5 nM | 45.1% | 1600 nM
6 | Nc1cc(S(=O)(=O)c2ccc(OC(F)(F)F)cc2)cnc1C(=O)N1CCC(F)(F)C1 [Compound 203, (3-amino-5-{[4-(trifluoromethoxy)phenyl]sulfonyl}pyridin-2-yl)(3,3-difluoropyrrolidin-1-yl)methanone] | 92.6% | 47.3 nM | 57.3% | 1270 nM

Compounds with a lower EC50 (CFTR ΔF508 mutant), results first:

Row | % Activation (CFTR ΔF508 mutant) | EC50 (CFTR ΔF508 mutant) | % Activation (CFTR G551D mutant) | EC50 (CFTR G551D mutant) | SMILES
7 | 106.7% | 3.9 nM | 76.4% | 337 nM | CC(C)(C)C1CCN(S(=O)(=O)c2cnc(C(=O)NCC(O)C(F)(F)F)c(N)c2)CC1 (stereo not shown) [Compound 197, 3-amino-5-[(4-tert-butylpiperidin-1-yl)sulfonyl]-N-(3,3,3-trifluoro-2-hydroxypropyl)pyridine-2-carboxamide]
8 | 107.0% | 7.8 nM | 75.2% | 756 nM | Nc1cc(S(=O)(=O)N2CCC(OC(F)(F)F)CC2)cnc1C(=O)NCC(O)C(F)(F)F (stereo not shown) [Compound 198, 3-amino-N-(3,3,3-trifluoro-2-hydroxypropyl)-5-{[4-(trifluoromethoxy)piperidin-1-yl]sulfonyl}pyridine-2-carboxamide]
9 | 114.1% | 21.6 nM | 65.0% | 1430 nM | CC1(C)CN(S(=O)(=O)c2cnc(C(=O)NCC(O)C(F)(F)F)c(N)c2)C1 (stereo not shown) [Compound 199, 3-amino-5-[(3,3-dimethylazetidin-1-yl)sulfonyl]-N-(3,3,3-trifluoro-2-hydroxypropyl)pyridine-2-carboxamide]
10 | 104.0% | 14.7 nM | 59.8% | 523 nM | Nc1cc(S(=O)(=O)c2ccc(C(F)(F)F)cc2)cnc1C(=O)NCC(O)COCC(F)(F)F (stereo not shown) [Compound 201, 3-amino-N-[2-hydroxy-3-(2,2,2-trifluoroethoxy)propyl]-5-{[4-(trifluoromethyl)phenyl]sulfonyl}pyridine-2-carboxamide]
